Data reported in PubChem BioAssay (NCI).
Several values for one entry are separate records, joined by “and”; a condition that tells them apart may be missing. Identical values can stand only once.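 All cell lines were grown in 96-well plates and treated with compound for 48 hours. Abbreviation: GI50, concentration required for 50% inhibition of growth. TGI: concentration producing complete growth inhibition.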

Key:
Experiment in all cases: DTP human tumour cell line panel, 48 h
COLO 205 colon = test system: COLO 205 colon
DU-145 prostate = test system: DU-145 prostate
HT29 colon = test system: HT29 colon
MALME-3M melanoma = test system: MALME-3M melanoma
MCF7 breast = test system: MCF7 breast
MDA-MB-435 = test system: MDA-MB-435
OVCAR-3 ovarian = test system: OVCAR-3 ovarian
SF-295 CNS = test system: SF-295 CNS
SF-539 CNS = test system: SF-539 CNS
SNB-19 CNS = test system: SNB-19 CNS

SMILES | GI50 (COLO 205 colon) | TGI (COLO 205 colon) | GI50 (DU-145 prostate) | TGI (DU-145 prostate) | GI50 (HT29 colon) | TGI (HT29 colon) | GI50 (MALME-3M melanoma) | TGI (MALME-3M melanoma) | GI50 (MCF7 breast) | TGI (MCF7 breast) | GI50 (MDA-MB-435) | TGI (MDA-MB-435) | GI50 (OVCAR-3 ovarian) | TGI (OVCAR-3 ovarian) | GI50 (SF-295 CNS) | TGI (SF-295 CNS) | GI50 (SF-539 CNS) | TGI (SF-539 CNS) | GI50 (SNB-19 CNS) | TGI (SNB-19 CNS)
CCN1C(=O)N(CC)C2C1NN=c1s/c(=C\c3ccc(OC)cc3)c(=O)n12 (configuration not stated) | 0.192 µM | 0.616 µM | 0.323 µM | > 29.8 µM | 238 nM | > 82.4 µM | 0.304 µM | > 100 µM | 46.5 nM | > 100 µM | 0.031 µM | 0.105 µM | 0.114 µM | 0.526 µM | 0.0684 µM | > 45.9 µM | 0.103 µM | 0.545 µM | 0.471 µM | > 100 µM
Oc1cccc(-c2nc(-c3ccccc3)[nH]c2-c2ccncc2)c1 | 4.88 µM | 12.2 µM | 16.3 µM | > 25 µM | 7460 nM | > 25 µM | 0.719 µM | 8.01 µM | 12800 nM | > 25 µM | 4.31 µM | > 25 µM | 18.6 µM | > 25 µM | 14.7 µM | > 25 µM | 17.6 µM | > 25 µM | > 25 µM | > 25 µM
COC(=O)c1ccc2c(C(=Nc3ccc(N(C)C(=O)CN4CCN(C)CC4)cc3)c3ccccc3)c(O)[nH]c2c1 | 4.32 µM and 4.41 µM | 46.4 µM | 3.22 µM and 6.14 µM | 14.9 µM and > 100 µM | 1220 nM | 3.9 µM | 1.37 µM and 1.44 µM | 2.94 µM and 3.46 µM | 1550 nM and 4480 nM | 13.6 µM and > 100 µM | 1.63 µM and 1.6 µM | 3.09 µM and 3.05 µM | 7.08 µM and 19.9 µM | 16.1 µM and 47 µM | 4.46 µM and 10.8 µM | 13.1 µM and > 56.9 µM | 0.597 µM and 1.4 µM | 2.26 µM and 5.9 µM | 2.6 µM and 3.55 µM | > 100 µM
CCOC(=O)c1cc(-c2ccccc2)[nH]c1N/N=C/c1c(Cl)cccc1Cl | 2.71 µM | 15.3 µM | 1.59 µM | 11.7 µM | 836 nM | 16.3 µM | 3.9 µM | > 100 µM | 450 nM | > 100 µM | 0.272 µM | 2.83 µM | 0.248 µM | 1.04 µM | 0.339 µM | 10.3 µM | 0.467 µM | 3.73 µM | 3.06 µM | > 60.4 µM
O=c1[nH]c(SCc2ccccc2[N+](=O)[O-])nc2nc[nH]c12 | – | > 100 µM | – | > 100 µM | – | > 100 µM | – | > 100 µM | – | > 100 µM | – | > 100 µM | – | > 100 µM | – | > 100 µM | – | > 100 µM | – | > 100 µM
CCCc1n(Cc2ccc3ccccc3n2)cc[n+]1Cc1ccc2ccccc2n1 | 0.633 µM | 2.21 µM | 4.22 µM | 31.2 µM | 1610 nM | 11.4 µM | 1.17 µM | 7.51 µM | 1250 nM | 11.9 µM | 1.13 µM | 11.9 µM | 0.705 µM | 10.6 µM | 3.57 µM | 15.7 µM | 2.14 µM | 13.4 µM | 1.13 µM | 13.2 µM
N#Cc1ccc(/C=C/C(=O)c2ccccc2)cc1 | 6.34 µM and 14.3 µM | 16.3 µM and 27.9 µM | 13.4 µM and 12.3 µM | 26.2 µM and 24.9 µM | 2330 nM and 2530 nM | 6.05 µM and 7 µM | 18.2 µM and 14.9 µM | 33.6 µM and 31 µM | 2440 nM and 1710 nM | 9.25 µM and 5.38 µM | 6.28 µM and 8.07 µM | 18 µM and 21.8 µM | 13.8 µM and 5.71 µM | 26.6 µM and 13 µM | 16.4 µM and 11.8 µM | 32.1 µM and 25.4 µM | 13.9 µM and 15.9 µM | 26.9 µM and 29.4 µM | 14.4 µM and 12.5 µM | 27.4 µM and 25.1 µM
Cc1cc2c(cc1Cl)N1C(=O)NS(=O)(=O)N=C1NS2(=O)=O | > 100 µM | > 100 µM | > 100 µM | > 100 µM | > 100000 nM | > 100 µM | > 100 µM | > 100 µM | > 100000 nM | > 100 µM | > 100 µM | > 100 µM | > 100 µM | > 100 µM | > 100 µM | > 100 µM | > 100 µM | > 100 µM | > 100 µM | > 100 µM
CCN(CCO)CCCOc1ccc2c(Nc3cc(CC(=O)Nc4cccc(F)c4)[nH]n3)ncnc2c1 | 0.034 µM and 0.0244 µM | 1.22 µM | 34.5 µM | > 100 µM | 13400 nM | 66.2 µM and > 10 µM | 8.04 µM | 26.8 µM | – | 22.5 µM and > 4.11 µM | 14.1 µM | 34 µM | 10.9 µM | 42.9 µM and > 4.07 µM | – | > 100 µM | – | 22.2 µM and > 2.7 µM | 15.4 µM | > 60.6 µM
CC(=O)C(C=O)C(C)=O.CC(=O)CC(C)=O.CC(=O)CC(C)=O.[Ru] | 29.9 µM | > 100 µM | 37.8 µM | > 100 µM | 21000 nM | > 100 µM | 24.6 µM | 96.9 µM | 35400 nM | > 100 µM | 43.5 µM | > 100 µM | 2.15 µM | 26.3 µM | 16.2 µM | 68 µM | 3.8 µM | 26.3 µM | 52.1 µM | > 100 µM
CC[C@@]1(O)C(=O)NCc2c1cc1n(c2=O)Cc2cc3c(NC(C)=O)cccc3nc2-1 | > 100 µM | > 100 µM | > 100 µM | > 100 µM | > 100000 nM | > 100 µM | > 100 µM | > 100 µM | > 100000 nM | > 100 µM | > 100 µM | > 100 µM | > 100 µM | > 100 µM | > 100 µM | > 100 µM | > 100 µM | > 100 µM | > 100 µM | > 100 µM
O=C1C(Br)=CC2(C=C1Br)CCNc1c(O)c3c4c(c12)=NCCC=4C=N3 | – | 0.0289 µM | – | 1.49 µM | – | 0.168 µM | – | 0.0946 µM | – | 0.0745 µM | – | 0.245 µM | – | 0.0835 µM | – | 2.56 µM | – | 0.557 µM | – | 3.97 µM
COc1cc(NC(C)CCCN2C(=O)c3ccccc3C2=O)c2ncccc2c1OC (configuration not stated) | 31.9 µM | > 100 µM | 41.9 µM | > 100 µM | 36300 nM | > 100 µM | 22.9 µM | 58.3 µM | 10900 nM | > 100 µM | 34.2 µM | > 100 µM | 25.8 µM | > 100 µM | 21.1 µM | 86.5 µM | 78 µM | > 100 µM | 67.7 µM | > 100 µM
